Common to all, as to experiment: NCI anticancer screen, dose series, 48 h
Assay [1] has as its system IGROV-1.
The subject of assay [2] is LOX IMVI.
The subject of assay [3] is NCI-H460.
Assay [4] deals with SF-539.
Assay [5] concerns MCF7.
The test system of assay [6] is CCRF-CEM.
Assay [7] concerns TK-10.
Assay [8] relates to A498.
Assay [9] deals with UO-31.
Assay [10] has as its system SR.
Assay [11] relates to OVCAR-4.
The test system of assay [12] is SN12C.
In assay [13] the test system is SW-620.
The subject of assay [14] is NCI-H522.
For assay [15], the system named is MOLT-4.
The subject of assay [16] is NCI/ADR-RES.
Assay [17] relates to SK-MEL-2.
Assay [18] deals with KM12.
The test system of assay [19] is M14.
For assay [20], the system named is HCC 2998.

Structures are written as SMILES.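 How tested: cells in 96-well plates exposed to compound for 48 hours at five concentrations. GI50 marks 50% less growth.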 The source made the active and inactive calls. Rule as the data show it: active = GI50 up to about 1.1 µM and inactive = higher. A value given as a limit tells only on which side of the number the result lay.

As to `COc1cc(S(=O)(=O)Nc2ccc(-c3csc(N4C(=O)C(Cl)C4c4ccccc4)n3)cc2)ccc1Cl` (stereo unspecified), the GI50 in [1] was 4.63 µM (inactive); in assay [2], 2.14 µM (inactive); in [3] it was < 0.01 µM (active); in [4], 32.7 µM (inactive); in assay [5], 27.1 µM (inactive); in assay [6], 3.37 µM (inactive). The GI50 in assay [7] was > 100 µM (inactive); in assay [8], 25.9 µM (inactive); in assay [9], 25 µM (inactive); in [10] it was 3.06 µM (inactive); in [11], 52.6 µM (inactive); in assay [12], 24.9 µM (inactive). Besides, the GI50 in [13] is 50.4 µM (inactive); in [14], 3.14 µM (inactive); in assay [15], 27 µM (inactive); in assay [16] it was > 100 µM (inactive); in assay [17], > 100 µM (inactive); in assay [18], 44.2 µM (inactive). In [19], the GI50 is 24 µM (inactive).
Regarding `CCOc1ccccc1/C=C(/C#N)C(N)=O`, the GI50 in assay [1] is > 100 µM (inactive); in assay [2] it was > 100 µM (inactive); in [3], > 100 µM (inactive); in assay [4], 70.6 µM (inactive); in assay [5], 41.7 µM (inactive); in [6], 10.3 µM (inactive). Also, the GI50 in [7] was > 100 µM (inactive); in [8], > 100 µM (inactive); in [9] it was 85.3 µM (inactive); in assay [10] it was 23.9 µM (inactive); in assay [11] it was > 100 µM (inactive); in assay [12], > 100 µM (inactive). For the same compound, the GI50 is 60 µM (inactive) in [13]; > 100 µM (inactive) in [14]; 83.9 µM (inactive) in [15]; > 100 µM (inactive) in [16]; > 100 µM (inactive) in assay [17]; > 100 µM (inactive) in assay [18]. Also, the GI50 in [19] was > 100 µM (inactive).
As to `COc1cc(O)c2c(O)c3c(c4c2c1[C@]1(C4)C(C)=CCCC1(C)C)[C@H](O)[C@@]1(O)CC(O)=C(C(N)=O)C(=O)[C@@]1(O)C3=O`, the GI50 was 0.643 µM (active) in assay [1]; 0.305 µM (active) in [2]; 0.0435 µM (active) in [3]; 0.166 µM (active) in [4]; 0.164 µM (active) in [5]; 0.0326 µM (active) in assay [6]. For the same compound, the GI50 in assay [7] was 0.189 µM (active); in [8] it was 0.163 µM (active); in assay [9], 0.34 µM (active); in [10], 0.269 µM (active); in [11], 0.245 µM (active); in assay [12] it was 0.0531 µM (active). For the same compound, the GI50 is 0.0619 µM (active) in assay [13]; 0.071 µM (active) in assay [14]; 0.333 µM (active) in assay [15]; 0.345 µM (active) in assay [16]; 0.236 µM (active) in assay [17]; 0.346 µM (active) in assay [18]. Moreover, the GI50 in assay [19] is 0.126 µM (active).
As for `CCN(C(=O)N[C@@H](Cc1ccccc1)C(=O)N[C@@H](CC(C)C)C(=O)OC)c1ccccc1`, the GI50 in assay [1] was 17 µM (inactive); in assay [2], 13.8 µM (inactive); in [3], 12.4 µM (inactive); in assay [4] it was 19.5 µM (inactive); in [5], 24 µM (inactive); in assay [6], 19.3 µM (inactive). For the same compound, the GI50 in assay [7] is 33 µM (inactive); in [9], 18.1 µM (inactive); in [10], 6.18 µM (inactive); in assay [11], 28.1 µM (inactive); in assay [12], 16 µM (inactive); in assay [13] it was 25.4 µM (inactive). For the same compound, the GI50 in assay [14] was 9.55 µM (inactive); in [15] it was 15.8 µM (inactive); in assay [16] it was 26.5 µM (inactive); in [17], 61 µM (inactive); in [20], 30.8 µM (inactive); in assay [18], 29.4 µM (inactive). Moreover, in [19], the GI50 is 8.24 µM (inactive).
Turning to `CCC1=C(CC2NCCc3cc(OC)c(OC)cc32)CC2c3ccccc3CCN2C1` (stereo unspecified), the GI50 in [1] is 21.2 µM (inactive); in [2], 13.5 µM (inactive); in assay [3], 12.6 µM (inactive); in assay [4], 9.55 µM (inactive); in assay [5], 18.7 µM (inactive); in assay [6], 10.4 µM (inactive). In addition, the GI50 in assay [7] was 26.7 µM (inactive); in assay [8], 13.2 µM (inactive); in assay [9] it was 15 µM (inactive); in assay [10], 10.1 µM (inactive); in [11], 22.5 µM (inactive); in assay [12], 21.7 µM (inactive). Moreover, the GI50 was 13.8 µM (inactive) in [13]; 14.8 µM (inactive) in [14]; 15.3 µM (inactive) in [15]; 29.6 µM (inactive) in [16]; 15.8 µM (inactive) in assay [17]; 23.7 µM (inactive) in assay [18]. Besides, the GI50 in assay [19] was 14.3 µM (inactive).
For the compound `CC(O)C1CC1(CO)CNc1cc(Cl)nc(N)n1` (stereo unspecified), the GI50 in [1], in assay [2], in assay [3], in assay [4], in [5] and in assay [6] was > 100 µM (inactive) throughout. The GI50 in assay [7], in assay [9], in assay [10], in assay [11], in assay [12] and in assay [13] was > 100 µM (inactive) each time. Moreover, the GI50 in [14], in assay [15], in assay [16], in [17], in [20] and in assay [18] was > 100 µM (inactive) in each case.
In the case of `O=S(=O)(CC(O)C(Cl)(Cl)Cl)NNc1ccccc1` (stereo unspecified), the GI50 was > 100 µM (inactive) in assay [1]; > 100 µM (inactive) in assay [2]; 75.3 µM (inactive) in [3]; > 100 µM (inactive) in assay [4]; > 100 µM (inactive) in assay [5]; > 100 µM (inactive) in assay [6]. Also, the GI50 in [7], in assay [8], in assay [10], in assay [11], in assay [12] and in [13] was > 100 µM (inactive) each time. Further, the GI50 in assay [14] is > 100 µM (inactive); in assay [15], > 100 µM (inactive); in assay [16] it was > 100 µM (inactive); in [17], > 100 µM (inactive); in assay [18], > 100 µM (inactive); in [19], 81.7 µM (inactive).
Regarding `CCCCC1(O)CC2CC1C(C)C2(C)C` (stereo unspecified), the GI50 in assay [1] was > 100 µM (inactive); in assay [2], > 100 µM (inactive); in [4], > 100 µM (inactive); in [5] it was > 100 µM (inactive); in assay [6], 93.5 µM (inactive); in assay [7], > 100 µM (inactive). Moreover, the GI50 in [9] is > 100 µM (inactive); in [10], 44.8 µM (inactive); in [11], > 100 µM (inactive); in assay [12], > 100 µM (inactive); in assay [13] it was > 100 µM (inactive); in [15] it was 93.3 µM (inactive). Moreover, the GI50 in assay [16], in assay [20], in assay [18] and in assay [19] was > 100 µM (inactive) throughout.
For `Cc1c([N+](=O)[O-])ccc2c(NCCCN(C)C)ccnc12`, the GI50 in [1] was 22.2 µM (inactive); in [2], 15.7 µM (inactive); in [3], 16.3 µM (inactive); in assay [4], 16.8 µM (inactive); in assay [5], 15.9 µM (inactive); in [6], > 100 µM (inactive). For the same compound, the GI50 is 27.5 µM (inactive) in assay [7]; 34 µM (inactive) in [8]; 13.7 µM (inactive) in [9]; 29.2 µM (inactive) in assay [10]; 17.4 µM (inactive) in [11]; 29.1 µM (inactive) in assay [12]. For the same compound, the GI50 was 17.8 µM (inactive) in assay [13]; 17.3 µM (inactive) in assay [14]; > 100 µM (inactive) in [15]; 28.2 µM (inactive) in assay [16]; 17.1 µM (inactive) in assay [17]; 16.7 µM (inactive) in [18]. For the same compound, the GI50 in assay [19] was 16.3 µM (inactive).
Consider `Oc1cc(N2CCCC2)ccc1/C=N/N1C(=S)N(c2ccccc2)C(=N\c2ccccc2)/C1=N/c1ccccc1`, for which the GI50 in assay [1] was > 100 µM (inactive); in [3] it was > 100 µM (inactive); in [4], > 100 µM (inactive); in [5] it was 70.1 µM (inactive); in assay [7], 75 µM (inactive); in assay [9] it was > 100 µM (inactive). The GI50 is > 100 µM (inactive) in assay [10]; > 100 µM (inactive) in [12]; 87.9 µM (inactive) in assay [13]; 23.4 µM (inactive) in assay [14]; > 100 µM (inactive) in assay [15]; > 100 µM (inactive) in assay [16]. The GI50 in assay [17] is > 100 µM (inactive); in assay [20] it was > 100 µM (inactive); in [18], > 100 µM (inactive); in assay [19], 34.2 µM (inactive).
For the compound `Cc1cn(CCCCCCOC(=O)NC(CCCNC(N)=O)C(=O)O)c(=O)[nH]c1=O` (stereo unspecified), the GI50 in assay [1], in assay [2], in assay [3], in assay [4], in assay [5] and in assay [6] was > 100 µM (inactive) each time. Moreover, the GI50 in assay [7], in assay [8], in assay [9], in assay [10], in assay [11] and in [12] was > 100 µM (inactive) throughout. In addition, the GI50 in assay [13], in assay [15], in [16], in [17], in [20] and in assay [18] was > 100 µM (inactive) each time. Further, in assay [19], the GI50 is > 100 µM (inactive).

For the origin of these results see ChEMBL document CHEMBL1201862, “PubChem BioAssay data set” (2004).
